# Reference: patent US20070015823A1, “Ambruticin VS compounds” (priority 2004, published 2007)
# Like-named read-outs stand apart in the source and are kept apart here.
# Columns and labels:
# A. flavus ATCC 204304 = assay: Broth microdilution antifungal susceptibility, NCCLS M38-A; assay type: cell-based, Aspergillus flavus; details: minimal concentration inhibiting >95% growth, average of at least two assays (except I-l and I-x)
# S. apiospermum = assay: as above; assay type: cell-based, Scedosporium apiospermum; details: for MIC: Scedosporium apiospermum, 50% growth inhibition, range = minimum and maximum of multiple assays
# Cryptococcus neoformans = assay: as above; details: for MIC: Cryptococcus neoformans
# C. immitis = assay: microbe, parasite or virus in culture; assay type: cell-based, Coccidioides immitis; details: Coccidioides immitis
# C. posadasii = assay: microbe, parasite or virus in culture; assay type: cell-based, Coccidioides posadasii; details: Coccidioides posadasii
# Fusarium solani = assay: Broth microdilution antifungal susceptibility, NCCLS M38-A; assay type: cell-based; details: strain 96-1, 50% growth inhibition, range = minimum and maximum of multiple assays
# Blastomyces dermatitidis = assay: as above; assay type: cell-based; details: for MIC: Blastomyces dermatitidis
# A. fumigatus ATCC 204305 = assay: as above; assay type: cell-based, Aspergillus fumigatus; details: minimal concentration inhibiting >95% growth, average of at least two assays (except I-l and I-x)
# Candida albicans = details: 50% growth inhibition, range = minimum and maximum of multiple assays; for MIC C. albicans 24433: strain 24433; for MIC C. albicans 90028: strain 90028
# Histoplasma capsulatum = assay type: cell-based
# Trichophyton rubrum = assay: Dermatophyte broth microdilution, NCCLS M38-A; assay type: cell-based
# Epidermophyton floccosum = assay: Dermatophyte broth microdilution, NCCLS M38-A; assay type: cell-based
# [1] = test system: Trichophyton interdigitale; assay: Dermatophyte broth microdilution, NCCLS M38-A; assay type: cell-based
# Microsporum canis = assay: Dermatophyte broth microdilution, NCCLS M38-A; assay type: cell-based
# [2] = test system: Trichophyton mentagrophytes; assay: Dermatophyte broth microdilution, NCCLS M38-A; assay type: cell-based
# Microsporum gypseum = assay: Dermatophyte broth microdilution, NCCLS M38-A; assay type: cell-based
smiles,measurement,setting,value
"CC[C@H]1O[C@@H](C(C)C[C@H](C)/C=C/[C@H]2[C@@H](C)[C@@H]2/C=C/[C@@H]2O[C@H](CC(=O)O)CC(O)[C@H]2O)CC=C1C (stereo partly drawn) [Ambruticin S, (5S,6R)-5,6-dihydroxypoly-angioic acid, reference compound]",MIC,"A. flavus ATCC 204304; Aspergillus flavus, ATCC204304, read-out: MIC0 A. flavus ATCC 204304",28.4 µg/mL
same,MIC,"S. apiospermum; strain 94-54, read-out: MIC S. apiospermum 94-54",> 32 µg/mL
same,MIC,"S. apiospermum; strain 98-38, read-out: MIC S. apiospermum 98-38",> 32 µg/mL
same,MIC,"S. apiospermum; strain 98-89, read-out: MIC S. apiospermum 98-89",4 µg/mL
same,MIC,Cryptococcus neoformans; read-out: MIC C. neoformans 97-14,8 µg/mL
same,MIC,Cryptococcus neoformans; read-out: MIC C. neoformans 11239,4 µg/mL
same,MIC,Cryptococcus neoformans; read-out: MIC C. neoformans 11240,16 µg/mL
same,MIC,C. immitis; read-out: MIC C. immitis RMS 2281,2 µg/mL
same,MIC,C. immitis; read-out: MIC C. immitis RS,2 µg/mL
same,MIC,C. immitis; read-out: MIC C. immitis S46,4 µg/mL
same,MIC,C. posadasii; read-out: MIC C. posadasii C735,4 µg/mL
same,MIC,C. posadasii; read-out: MIC C. posadasii RMSCC 2127,2 µg/mL
same,MIC,C. posadasii; read-out: MIC C. posadasii Silveria,2 µg/mL
same,MIC,"Fusarium solani; Fusarium solani, read-out: MIC F. solani 96-1",> 32 µg/mL
same,MIC,Blastomyces dermatitidis; read-out: MIC0 Blastomyces dermatitidis R-35629,0.125 µg/mL
same,MIC,"Blastomyces dermatitidis; strain 04-2167, >95% growth inhibition, read-out: MIC0 Blastomyces dermatitidis 04-2167",0.125 µg/mL
same,MIC,"Blastomyces dermatitidis; strain 04-2508, >95% growth inhibition, read-out: MIC0 Blastomyces dermatitidis 04-2508",0.25 µg/mL
same,MIC,"Blastomyces dermatitidis; strain 04-2915, >95% growth inhibition, read-out: MIC0 Blastomyces dermatitidis 04-2915",1 µg/mL
same,MIC,"Blastomyces dermatitidis; strain 05-106, >95% growth inhibition, read-out: MIC0 Blastomyces dermatitidis 05-106",0.5 µg/mL
same,MIC,"Blastomyces dermatitidis; strain 05-186, >95% growth inhibition, read-out: MIC0 Blastomyces dermatitidis 05-186",0.125 µg/mL
same,MIC,"Blastomyces dermatitidis; strain 05-1391, >95% growth inhibition, read-out: MIC0 Blastomyces dermatitidis 05-1391",0.06 µg/mL
same,MIC,"Blastomyces dermatitidis; strain 05-1707, >95% growth inhibition, read-out: MIC0 Blastomyces dermatitidis 05-1707",≤ 0.015 µg/mL
same,MIC,"Blastomyces dermatitidis; strain 05-1820, >95% growth inhibition, read-out: MIC0 Blastomyces dermatitidis 05-1820",0.125 µg/mL
same,MIC,"Blastomyces dermatitidis; strain 05-1829, >95% growth inhibition, read-out: MIC0 Blastomyces dermatitidis 05-1829",0.25 µg/mL
same,MIC,"Blastomyces dermatitidis; strain 05-2020, >95% growth inhibition, read-out: MIC0 Blastomyces dermatitidis 05-2020",0.06 µg/mL
same,MIC,"Blastomyces dermatitidis; strain R-3529, >95% growth inhibition, read-out: MIC0 Blastomyces dermatitidis R-3529",0.06 µg/mL
same,MIC,"A. fumigatus ATCC 204305; Aspergillus fumigatus, ATCC204305, read-out: MIC0 A. fumigatus ATCC 204305",29.3 µg/mL
"CC[C@H]1O[C@@H](/C(C)=C/[C@H](C)/C=C/[C@H]2[C@@H](C)[C@@H]2/C=C/[C@@H]2O[C@H](CCO)C[C@H](N(C)C)[C@H]2O)CC=C1C [I-ff, (5S,6R)-5-(dimethylamino)polyangi-1,6-diol]",MIC0 A. flavus ATCC 204304,A. flavus ATCC 204304,1.76 µg/mL
same,MIC C. albicans 24433,Candida albicans,32 µg/mL
same,MIC C. albicans 90028,Candida albicans,32 µg/mL
same,MIC S. apiospermum 94-54,S. apiospermum,32 µg/mL
same,MIC S. apiospermum 98-38,S. apiospermum,16 µg/mL
same,MIC S. apiospermum 98-89,S. apiospermum,0.5 µg/mL
same,MIC F. solani 96-1,Fusarium solani,8 to 16 µg/mL
same,MIC0 Blastomyces dermatitidis 04-2167,Blastomyces dermatitidis,0.06 µg/mL
same,MIC0 Blastomyces dermatitidis 04-2508,Blastomyces dermatitidis,0.06 µg/mL
same,MIC0 Blastomyces dermatitidis 04-2915,Blastomyces dermatitidis,0.06 µg/mL
same,MIC0 Blastomyces dermatitidis 05-106,Blastomyces dermatitidis,0.06 µg/mL
same,MIC0 Blastomyces dermatitidis 05-186,Blastomyces dermatitidis,0.06 µg/mL
same,MIC0 Blastomyces dermatitidis 05-1391,Blastomyces dermatitidis,0.06 µg/mL
same,MIC0 Blastomyces dermatitidis 05-1707,Blastomyces dermatitidis,≦0.015 μg/mL
same,MIC0 Blastomyces dermatitidis 05-1820,Blastomyces dermatitidis,0.03 µg/mL
same,MIC0 Blastomyces dermatitidis 05-1829,Blastomyces dermatitidis,0.06 µg/mL
same,MIC0 Blastomyces dermatitidis 05-2020,Blastomyces dermatitidis,0.06 µg/mL
same,MIC0 Blastomyces dermatitidis R-3529,Blastomyces dermatitidis,0.03 µg/mL
same,MIC0 Blastomyces dermatitidis R-35629,Blastomyces dermatitidis,0.06 µg/mL
same,MIC B. dermatitidis Gu,Blastomyces dermatitidis,>12.5 µg/mL
same,MIC B. dermatitidis Kr,Blastomyces dermatitidis,>12.5 µg/mL
same,MIC B. dermatitidis V,Blastomyces dermatitidis,>12.5 µg/mL
same,MIC0 A. fumigatus ATCC 204305,A. fumigatus ATCC 204305,2.07 µg/mL
same,MIC H. capsulatum G217B,Histoplasma capsulatum,<0.19 µg/mL
same,MIC H. capsulatum GS20,Histoplasma capsulatum,<0.19 µg/mL
"CC[C@H]1O[C@@H](/C(C)=C/[C@H](C)/C=C/[C@H]2[C@@H](C)[C@@H]2/C=C/[C@@H]2O[C@H](CC(N)=O)C[C@H](N(C)C)[C@H]2O)CC=C1C [I-hh, (5S,6R)-5-(dimethylamino)polyangiamide]",MIC0 Tr,Trichophyton rubrum,2.51 µg/mL
same,MIC0 A. flavus ATCC 204304,A. flavus ATCC 204304,2 µg/mL
same,MIC C. albicans 24433,Candida albicans,32 µg/mL
same,MIC C. albicans 90028,Candida albicans,32 µg/mL
same,MIC S. apiospermum 94-54,S. apiospermum,32 µg/mL
same,MIC S. apiospermum 98-38,S. apiospermum,32 µg/mL
same,MIC S. apiospermum 98-89,S. apiospermum,1 to 2 µg/mL
same,MIC C. neoformans 97-14,"Cryptococcus neoformans; strain 97-14, 50% growth inhibition, range = minimum and maximum of multiple assays",1 µg/mL
same,MIC C. neoformans 11239,"Cryptococcus neoformans; strain 11239, 50% growth inhibition, range = minimum and maximum of multiple assays",1 µg/mL
same,MIC C. neoformans 11240,"Cryptococcus neoformans; strain 11240, 50% growth inhibition, range = minimum and maximum of multiple assays",1 µg/mL
same,MIC0 Ef,Epidermophyton floccosum,2.82 µg/mL
same,MIC F. solani 96-1,Fusarium solani,16 µg/mL
same,MIC0 Ti,[1],3.17 µg/mL
same,MIC0 Mc,Microsporum canis,0.7 µg/mL
same,MIC0 Tm,[2],2.82 µg/mL
same,MIC0 A. fumigatus ATCC 204305,A. fumigatus ATCC 204305,1 µg/mL
same,MIC0 Mg,Microsporum gypseum,1.25 µg/mL
